# From PMC12587574, “Mass balance, pharmacokinetics, metabolism, and excretion of radiolabeled acoziborole, a potential novel treatment for human African trypanosomiasis, following single microtracer oral dose to humans” (Antimicrobial Agents and Chemotherapy, 2025)
# “And” between values parts separate entries of the source, which are not always exact repeats. Equal values may be shown once. Read-outs that look alike come from different tables or passages of the source.
# Tests used:
# [1] = Metabolite profiling and identification in pools of plasma, urine and feces (UPLC-MS, AMS); assay type: in vivo, human
# Protocol: Individual pools of plasma (0–336 h, including time points at 1, 4, 9, 12, 24, 48, 72, 96, 120, 168, 240, and 336 h), urine (0–240 h, including time intervals 0–6, 6–12, 12–24, 24–48, 48–72, 72–96, 96–120, 120–168, 168–192, 192–216, and 216–240 h) and feces homogenates (0–240 h, including time intervals 0–6, 6–12, 12–24, 24–48, 48–72, 72–96, 96–120, 120–168, and 168–240 h) were prepared; for plasma this was done according to the method described in reference and for feces by using equal percentages per time point based on total volume. Subsequently, a pool per matrix was prepared by mixing equal volumes of each participant pool. In addition, a plasma pre-dose pool was prepared by mixing equal volumes of each pre-dose sample. For urine and feces, TNO blank pool was used to generate a pre-dose sample. Samples were stored below −18°C. Samples (100 µL plasma, 250 µL urine, and 200 mg feces) were pre-treated and injected onto an ultra-high performance liquid chromatography (UPLC)-MS system (Acquity UPLC system [Waters] coupled to a Q-Exactive [Thermo]; Acquity HSS C18 VanGuard 5 mm × 2.1 mm, 1.8 µm [Waters] pre-column and Acquity HSS C18 100 mm × 2.1 mm, 1.8 µm d.p. [Waters]). Fractions were collected and analyzed off-line by AMS. AMS analysis was performed on an AMS system, consisting of an elemental analyzer, a double gas interface, and a 1 MV multi-element AMS. All fecal homogenate sample analyzes were performed in triplicate. Plasma pre-dose and TNO blank urine and feces pools were used for background correction. The UPLC method qualification included determination of retention time stability and extraction recovery. Metabolites were tentatively assigned to fractions in which activity greater than the baseline was observed, based on retention time and structural information provided by DNDi. Presence of the metabolite was confirmed by accurate mass data from high-resolution mass spectrometric analysis.
# [2] = Safety and tolerability assessment, phase I mass balance study; assay type: in vivo, human
# Protocol: Safety was assessed by adverse event (AE) reports and at specific times during the physical examination, vital signs, 12-lead ECGs, and laboratory evaluations (see Supplementary Information section 2). AEs were all recorded from the time participants signed the consent form until the follow-up call, 5–10 days after final study discharge, and were evaluated for type, severity, frequency of AEs, and relationship to the IP.
# [3] = design: method as in PMID 21738803; settings: oral, mice; cited from earlier work
# [4] = design: method as in PMID 21738803; settings: NHPs, cited from earlier work
# [5] = design: method as in PMID 21738803; settings: rats; cited from earlier work
smiles,measurement,setting,value
CC1(C)OB(O)c2cc(NC(=O)c3ccc(F)cc3C(F)(F)F)ccc21 [acoziborole],"proportion of the dose excreted, urine and feces combined",[1]; 0–240 h pools,34.2%
same,"abundance relative to dose, feces",[1]; feces homogenates 0–240 h,33.6%
same,"relative abundance in radiochromatogram, feces homogenates pool",[1]; feces homogenates 0–240 h,66.0%
same,"relative abundance in radiochromatogram (share of total radioactivity), plasma pool","[1]; plasma pool 0–336 h, 960 mg single oral [14C]-acoziborole, listed as Parent (acoziborole)",95.1%
same,"abundance relative to dose, urine",[1]; urine pool 0–240 h,0.6% and < 1%
same,"relative abundance in radiochromatogram, urine pool",[1]; urine pool 0–240 h,7.6%
same,"abundance relative to dose, urine","[1]; urine pool 0–240 h, listed as Parent (acoziborole)",0.6%
same,overall tolerability,"[2]; 960 mg single oral dose, N = 6",well-tolerated overall
same,"Balanitis candida, participants","[2]; Day 1, N = 6",0 (0.0) 0 (0.0) n (%)
same,"Blood glucose increased, participants","[2]; Day 1, N = 6",0 (0.0) 0 (0.0) n (%)
same,"Gastrointestinal disorders (system organ class), events","[2]; Day 1, N = 6",0
same,"Gastrointestinal disorders (system organ class), participants","[2]; Day 1, N = 6",0 (0.0) n (%)
same,"Headache, events","[2]; Day 1, N = 6",2
same,"Headache, participants","[2]; Day 1, N = 6",2 (33.3) n (%)
same,"Infections and infestation (system organ class), events","[2]; Day 1, N = 6",0
same,"Infections and infestation (system organ class), participants","[2]; Day 1, N = 6",0 (0.0) n (%)
same,"Injury, poisoning and procedural complications (system organ class), events","[2]; Day 1, N = 6",0
same,"Injury, poisoning and procedural complications (system organ class), participants","[2]; Day 1, N = 6",0 (0.0) n (%)
same,"Investigations (system organ class), events","[2]; Day 1, N = 6",0
same,"Investigations (system organ class), participants","[2]; Day 1, N = 6",0 (0.0) n (%)
same,"Myalgia, events","[2]; Day 1, N = 6",0
same,"Myalgia, participants","[2]; Day 1, N = 6",0 (0.0) n (%)
same,"Nervous system disorders (system organ class), events","[2]; Day 1, N = 6",2
same,"Nervous system disorders (system organ class), participants","[2]; Day 1, N = 6",2 (33.3) n (%)
same,"Phosphokinase increased, participants","[2]; Day 1, N = 6",0 (0.0) 0 (0.0) n (%)
same,"Rhinitis, participants","[2]; Day 1, N = 6",0 (0.0) 0 (0.0) n (%)
same,"Skin laceration, events","[2]; Day 1, N = 6",0
same,"Skin laceration, participants","[2]; Day 1, N = 6",0 (0.0) n (%)
same,"Surgical and medical procedures (system organ class), events","[2]; Day 1, N = 6",0
same,"Surgical and medical procedures (system organ class), participants","[2]; Day 1, N = 6",0 (0.0) n (%)
same,"TEAEs, events","[2]; Day 1, N = 6",2
same,"TEAEs, participants","[2]; Day 1, N = 6",2 (33.3) n (%)
same,"Tooth repair, events","[2]; Day 1, N = 6",0
same,"Tooth repair, participants","[2]; Day 1, N = 6",0 (0.0) n (%)
same,"Toothache, events","[2]; Day 1, N = 6",0
same,"Toothache, participants","[2]; Day 1, N = 6",0 (0.0) n (%)
same,"Balanitis candida, events","[2]; Day 2 to Day 15, N = 6",2
same,"Balanitis candida, participants","[2]; Day 2 to Day 15, N = 6",1 (16.7) n (%)
same,"Blood glucose increased, events","[2]; Day 2 to Day 15, N = 6",0
same,"Blood glucose increased, participants","[2]; Day 2 to Day 15, N = 6",0 (0.0) n (%)
same,"Gastrointestinal disorders (system organ class), events","[2]; Day 2 to Day 15, N = 6",1
same,"Gastrointestinal disorders (system organ class), participants","[2]; Day 2 to Day 15, N = 6",1 (16.7) n (%)
same,"Headache, events","[2]; Day 2 to Day 15, N = 6",1
same,"Headache, participants","[2]; Day 2 to Day 15, N = 6",1 (16.7) n (%)
same,"Infections and infestation (system organ class), events","[2]; Day 2 to Day 15, N = 6",2
same,"Infections and infestation (system organ class), participants","[2]; Day 2 to Day 15, N = 6",1 (16.7) n (%)
same,"Injury, poisoning and procedural complications (system organ class), events","[2]; Day 2 to Day 15, N = 6",0
same,"Injury, poisoning and procedural complications (system organ class), participants","[2]; Day 2 to Day 15, N = 6",0 (0.0) n (%)
same,"Investigations (system organ class), events","[2]; Day 2 to Day 15, N = 6",1
same,"Investigations (system organ class), participants","[2]; Day 2 to Day 15, N = 6",1 (16.7) n (%)
same,"Myalgia, events","[2]; Day 2 to Day 15, N = 6",0
same,"Myalgia, participants","[2]; Day 2 to Day 15, N = 6",0 (0.0) n (%)
same,"Nervous system disorders (system organ class), events","[2]; Day 2 to Day 15, N = 6",1
same,"Nervous system disorders (system organ class), participants","[2]; Day 2 to Day 15, N = 6",1 (16.7) n (%)
same,"Phosphokinase increased, events","[2]; Day 2 to Day 15, N = 6",1
same,"Phosphokinase increased, participants","[2]; Day 2 to Day 15, N = 6",1 (16.7) n (%)
same,"Rhinitis, events","[2]; Day 2 to Day 15, N = 6",0
same,"Rhinitis, participants","[2]; Day 2 to Day 15, N = 6",0 (0.0) n (%)
same,"Skin laceration, events","[2]; Day 2 to Day 15, N = 6",0
same,"Skin laceration, participants","[2]; Day 2 to Day 15, N = 6",0 (0.0) n (%)
same,"Surgical and medical procedures (system organ class), events","[2]; Day 2 to Day 15, N = 6",1
same,"Surgical and medical procedures (system organ class), participants","[2]; Day 2 to Day 15, N = 6",1 (16.7) n (%)
same,"TEAEs, events","[2]; Day 2 to Day 15, N = 6",6
same,"TEAEs, participants","[2]; Day 2 to Day 15, N = 6",4 (66.7) n (%)
same,"Tooth repair, events","[2]; Day 2 to Day 15, N = 6",1
same,"Tooth repair, participants","[2]; Day 2 to Day 15, N = 6",1 (16.7) n (%)
same,"Toothache, events","[2]; Day 2 to Day 15, N = 6",1
same,"Toothache, participants","[2]; Day 2 to Day 15, N = 6",1 (16.7) n (%)
same,"Balanitis candida, events","[2]; Day 16 to end of study, N = 6",0
same,"Balanitis candida, participants","[2]; Day 16 to end of study, N = 6",0 (0.0) n (%)
same,"Blood glucose increased, events","[2]; Day 16 to end of study, N = 6",1
same,"Blood glucose increased, participants","[2]; Day 16 to end of study, N = 6",1 (16.7) n (%)
same,"Gastrointestinal disorders (system organ class), events","[2]; Day 16 to end of study, N = 6",0
same,"Gastrointestinal disorders (system organ class), participants","[2]; Day 16 to end of study, N = 6",0 (0.0) n (%)
same,"Headache, events","[2]; Day 16 to end of study, N = 6",1
same,"Headache, participants","[2]; Day 16 to end of study, N = 6",1 (16.7) n (%)
same,"Infections and infestation (system organ class), events","[2]; Day 16 to end of study, N = 6",1
same,"Infections and infestation (system organ class), participants","[2]; Day 16 to end of study, N = 6",1 (16.7) n (%)
same,"Injury, poisoning and procedural complications (system organ class), events","[2]; Day 16 to end of study, N = 6",1
same,"Injury, poisoning and procedural complications (system organ class), participants","[2]; Day 16 to end of study, N = 6",1 (16.7) n (%)
same,"Investigations (system organ class), events","[2]; Day 16 to end of study, N = 6",1
same,"Investigations (system organ class), participants","[2]; Day 16 to end of study, N = 6",1 (16.7) n (%)
same,"Myalgia, events","[2]; Day 16 to end of study, N = 6",1
same,"Myalgia, participants","[2]; Day 16 to end of study, N = 6",1 (16.7) n (%)
same,"Nervous system disorders (system organ class), events","[2]; Day 16 to end of study, N = 6",1
same,"Nervous system disorders (system organ class), participants","[2]; Day 16 to end of study, N = 6",1 (16.7) n (%)
same,"Phosphokinase increased, events","[2]; Day 16 to end of study, N = 6",0
same,"Phosphokinase increased, participants","[2]; Day 16 to end of study, N = 6",0 (0.0) n (%)
same,"Rhinitis, events","[2]; Day 16 to end of study, N = 6",1
same,"Rhinitis, participants","[2]; Day 16 to end of study, N = 6",1 (16.7) n (%)
same,"Skin laceration, events","[2]; Day 16 to end of study, N = 6",1
same,"Skin laceration, participants","[2]; Day 16 to end of study, N = 6",1 (16.7) n (%)
same,"Surgical and medical procedures (system organ class), events","[2]; Day 16 to end of study, N = 6",0
same,"Surgical and medical procedures (system organ class), participants","[2]; Day 16 to end of study, N = 6",0 (0.0) n (%)
same,"TEAEs, events","[2]; Day 16 to end of study, N = 6",5
same,"TEAEs, participants","[2]; Day 16 to end of study, N = 6",3 (50.0) n (%)
same,"Tooth repair, events","[2]; Day 16 to end of study, N = 6",0
same,"Tooth repair, participants","[2]; Day 16 to end of study, N = 6",0 (0.0) n (%)
same,"Toothache, events","[2]; Day 16 to end of study, N = 6",0
same,"Toothache, participants","[2]; Day 16 to end of study, N = 6",0 (0.0) n (%)
same,TEAEs not considered related to the IP,[2]; N = 6,10/13
same,"changes in ECG parameters, vital signs, or physical examination post-dose",[2]; N = 6,no significant changes
same,"deaths, serious AEs, discontinuations due to AE",[2]; N = 6,"no deaths, serious AEs, or participant discontinuations due to any AE"
same,"mean laboratory testing results (blood chemistry, hematology, urinalysis)",[2]; N = 6,within acceptable range or considered non-clinically significant
same,severity of reported TEAEs,[2]; N = 6,mild or moderate
same,"Musculoskeletal and connective tissue disorders (system organ class), events","[2]; human, in vivo, 1 day",0
same,"Musculoskeletal and connective tissue disorders (system organ class), participants","[2]; human, in vivo, 1 day",0 (0.0) n (%)
same,"treatment-emergent AEs, total number",[2]; in the six participants,13
same,absolute bioavailability,[3],55%
same,concentration in the CSF as percentage of the plasma concentration,[4]; at each time point,approximately 5%
same,absolute bioavailability,[4]; oral,89%
same,brain to plasma AUC0–24h ratio,[5],44%
